# According to US20080051387A1, “TETRAHYDROPYRIDO[3,4-D]PYRIMIDINES AND RELATED ANALOGUES” (priority 2006, published 2008):
# Target: T1, chimeric human H3 receptor (Homo sapiens, UniProt Q9Y5N1)
# T1 construct: rat Galpha-i2 (Gnai2, rat); made in house; host or cells: Sf9 insect cells (baculovirus); P2 membranes
# Assay: Chimeric human H3 receptor screening GTP binding assay (inhibition of histamine-stimulated GTP-gamma35S binding, Example 8)
# Type: biochemical
# Details: 1 h; assay described in Example 8; symbol "!" in column headed Ki; read-out: Ki ("!": percent inhibition of agonist-induced GTP-gammaS binding to H3)
# Method in brief: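 Compound tested at 4 μM against 1 μM histamine stimulation; 125 pM GTP-gamma35S binding measured by filtration and scintillation after 60 min at room temperature. Membranes from Sf9 cells expressing chimeric human H3 plus G-protein subunits, in Tris pH 7.4/NaCl/MgCl2/GDP buffer; values are % inhibition after nonspecific subtraction.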
# T1 sequence (Q9Y5N1 with tags, fused parts or gaps): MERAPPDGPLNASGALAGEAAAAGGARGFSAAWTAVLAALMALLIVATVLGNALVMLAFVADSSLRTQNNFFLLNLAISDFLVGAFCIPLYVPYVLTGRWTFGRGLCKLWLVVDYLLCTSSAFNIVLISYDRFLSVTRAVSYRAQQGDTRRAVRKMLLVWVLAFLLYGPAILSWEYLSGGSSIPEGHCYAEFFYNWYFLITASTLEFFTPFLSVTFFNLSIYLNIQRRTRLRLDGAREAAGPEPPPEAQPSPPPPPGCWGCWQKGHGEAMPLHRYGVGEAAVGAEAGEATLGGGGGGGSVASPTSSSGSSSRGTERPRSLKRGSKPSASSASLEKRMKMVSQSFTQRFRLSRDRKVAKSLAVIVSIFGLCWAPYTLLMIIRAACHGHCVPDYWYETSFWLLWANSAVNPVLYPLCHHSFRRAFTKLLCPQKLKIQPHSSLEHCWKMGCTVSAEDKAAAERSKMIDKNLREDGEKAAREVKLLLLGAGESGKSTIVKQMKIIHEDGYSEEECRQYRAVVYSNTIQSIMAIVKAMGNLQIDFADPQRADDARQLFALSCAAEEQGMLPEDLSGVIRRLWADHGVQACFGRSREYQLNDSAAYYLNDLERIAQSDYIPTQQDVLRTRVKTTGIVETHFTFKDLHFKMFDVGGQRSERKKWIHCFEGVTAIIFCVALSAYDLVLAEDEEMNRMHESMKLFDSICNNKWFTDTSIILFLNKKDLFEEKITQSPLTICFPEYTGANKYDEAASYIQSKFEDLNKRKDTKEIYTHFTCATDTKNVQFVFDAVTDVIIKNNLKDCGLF
row,Compound,inhibition at 4 µM
1,"Cc1cc(C(=O)N2CCc3cnc(N4CCN(C5CCC5)CC4)nc3CC2)cc(Cl)n1 [Compound 484, 7-(2-chloro-6-methylisonicotinoyl)-2-(4-cyclobutylpiperazin-1-yl)-6,7,8,9-tetrahydro-5H-pyrimido[4,5-d]azepine]",≥ 90%
2,"COc1ccc(OC)c(/C=C/C(=O)N2CCc3cnc(N4CCN(C5CCC5)CC4)nc3CC2)c1 [Compound 574, 2-(4-cyclobutylpiperazin-1-yl)-7-[(2E)-3-(2,5-dimethoxyphenyl)prop-2-enoyl]-6,7,8,9-tetrahydro-5H-pyrimido[4,5-d]azepine]",≥ 90%
3,"O=C(Cc1ccc(F)cc1)N1CCc2cnc(N3CCN(C4CCC4)CC3)nc2CC1 [Compound 516, 2-(4-cyclobutylpiperazin-1-yl)-7-[(4-fluorophenyl)acetyl]-6,7,8,9-tetrahydro-5H-pyrimido[4,5-d]azepine]",≥ 90%
4,"CCCCOc1ccc(C(=O)N2CCc3cnc(N4CCN(C5CCC5)CC4)nc3CC2)cc1 [Compound 382, 7-(4-butoxybenzoyl)-2-(4-cyclobutylpiperazin-1-yl)-6,7,8,9-tetrahydro-5H-pyrimido[4,5-d]azepine]",≥ 90%
5,"O=C(/C=C/c1ccccc1Cl)N1CCc2cnc(N3CCN(C4CCC4)CC3)nc2CC1 [Compound 579, 7-[(2E)-3-(2-chlorophenyl)prop-2-enoyl]-2-(4-cyclobutylpiperazin-1-yl)-6,7,8,9-tetrahydro-5H-pyrimido[4,5-d]azepine]",≥ 90%
6,"COc1cc(C(=O)N2CCc3cnc(N4CCN(C5CCC5)CC4)nc3CC2)nc2ccccc12 [Compound 490, 2-(4-cyclobutylpiperazin-1-yl)-7-[(4-methoxyquinolin-2-yl)carbonyl]-6,7,8,9-tetrahydro-5H-pyrimido[4,5-d]azepine]",≥ 90%
7,"O=C(c1cc(Cl)nc(Cl)c1)N1CCc2cnc(N3CCN(C4CCC4)CC3)nc2CC1 [Compound 491, 2-(4-cyclobutylpiperazin-1-yl)-7-(2,6-dichloroisonicotinoyl)-6,7,8,9-tetrahydro-5H-pyrimido[4,5-d]azepine]",≥ 90%
8,"O=C(c1cc2ccccc2o1)N1CCc2cnc(N3CCN(C4CCC4)CC3)nc2CC1 [Compound 473, 7-(1-benzofuran-2-ylcarbonyl)-2-(4-cyclobutylpiperazin-1-yl)-6,7,8,9-tetrahydro-5H-pyrimido[4,5-d]azepine]",≥ 90%
9,"Cn1nc(C(F)(F)F)cc1-c1ccc(C(=O)N2CCc3cnc(N4CCN(C5CCC5)CC4)nc3CC2)s1 [Compound 460, 2-(4-cyclobutylpiperazin-1-yl)-7-({5-[1-methyl-3-(trifluoromethyl)-1H-pyrazol-5-yl]-2-thienyl}carbonyl)-6,7,8,9-tetrahydro-5H-pyrimido[4,5-d]azepine]",≥ 90%
10,"O=C(c1c(F)cccc1F)N1CCc2cnc(N3CCN(C4CCC4)CC3)nc2CC1 [Compound 389, 2-(4-cyclobutylpiperazin-1-yl)-7-(2,6-difluorobenzoyl)-6,7,8,9-tetrahydro-5H-pyrimido[4,5-d]azepine]",≥ 90%
11,"Cc1ccc(CC(=O)N2CCc3cnc(N4CCN(C5CCC5)CC4)nc3CC2)cc1 [Compound 515, 2-(4-cyclobutylpiperazin-1-yl)-7-[(4-methylphenyl)acetyl]-6,7,8,9-tetrahydro-5H-pyrimido[4,5-d]azepine]",≥ 90%
12,"Cc1cc(C(=O)N2CCc3cnc(N4CCN(C5CCC5)CC4)nc3CC2)c(C)o1 [Compound 465, 2-(4-cyclobutylpiperazin-1-yl)-7-(2,5-dimethyl-3-furoyl)-6,7,8,9-tetrahydro-5H-pyrimido[4,5-d]azepine]",≥ 90%
13,"COc1cc(C(=O)N2CCc3cnc(N4CCN(C5CCC5)CC4)nc3CC2)cc(Cl)n1 [Compound 485, 7-(2-chloro-6-methoxyisonicotinoyl)-2-(4-cyclobutylpiperazin-1-yl)-6,7,8,9-tetrahydro-5H-pyrimido[4,5-d]azepine]",≥ 90%

# Same assay, conditions: 1 h; assay of Example 8; symbol "!" in column headed Ki; read-out: percent inhibition of agonist-induced GTP-gammaS binding to H3
row,Compound,inhibition at 4 µM
1,"O=C(/C=C/c1ccccc1Br)N1CCc2cnc(N3CCN(C4CCC4)CC3)nc2CC1 [Compound 582, 7-[(2E)-3-(2-bromophenyl)prop-2-enoyl]-2-(4-cyclobutylpiperazin-1-yl)-6,7,8,9-tetrahydro-5H-pyrimido[4,5-d]azepine]",≥ 90%
2,"O=C(/C=C/c1cc2c(cc1Br)OCO2)N1CCc2cnc(N3CCN(C4CCC4)CC3)nc2CC1 [Compound 589, 7-[(2E)-3-(6-bromo-1,3-benzodioxol-5-yl)prop-2-enoyl]-2-(4-cyclobutylpiperazin-1-yl)-6,7,8,9-tetrahydro-5H-pyrimido[4,5-d]azepine]",≥ 90%
3,"COc1cc(CC(=O)N2CCc3cnc(N4CCN(C5CCC5)CC4)nc3CC2)cc(OC)c1OC [Compound 276, 2-(4-cyclobutylpiperazin-1-yl)-7-[(3,4,5-trimethoxyphenyl)acetyl]-6,7,8,9-tetrahydro-5H-pyrimido[4,5-d]azepine]",≥ 90%
4,"O=C(C(c1ccccc1)C1CCCC1)N1CCc2cnc(N3CCN(C4CCC4)CC3)nc2CC1 (stereo not drawn) [Compound 353, 2-(4-cyclobutylpiperazin-1-yl)-7-[cyclopentyl(phenyl)acetyl]-6,7,8,9-tetrahydro-5H-pyrimido[4,5-d]azepine]",≥ 90%
5,"N#Cc1ccc(C(=O)N2CCc3cnc(N4CCN(C5CCC5)CC4)nc3CC2)cc1 [Compound 268, 4-{[2-(4-cyclobutylpiperazin-1-yl)-5,6,8,9-tetrahydro-7H-pyrimido[4,5-d]azepin-7-yl]carbonyl}benzonitrile]",≥ 90%
6,"CCOc1ccc(Br)cc1/C=C/C(=O)N1CCc2cnc(N3CCN(C4CCC4)CC3)nc2CC1 [Compound 587, 7-[(2E)-3-(5-bromo-2-ethoxyphenyl)prop-2-enoyl]-2-(4-cyclobutylpiperazin-1-yl)-6,7,8,9-tetrahydro-5H-pyrimido[4,5-d]azepine]",≥ 90%
7,"O=C(Cc1ccc(F)cc1F)N1CCc2cnc(N3CCN(C4CCC4)CC3)nc2CC1 [Compound 286, 2-(4-cyclobutylpiperazin-1-yl)-7-[(2,4-difluorophenyl)acetyl]-6,7,8,9-tetrahydro-5H-pyrimido[4,5-d]azepine]",≥ 90%
8,"Cc1ccc(C(C(=O)N2CCc3cnc(N4CCN(C5CCC5)CC4)nc3CC2)c2ccccc2)cc1 (stereo not drawn) [Compound 356, 2-(4-cyclobutylpiperazin-1-yl)-7-[(4-methylphenyl)(phenyl)acetyl]-6,7,8,9-tetrahydro-5H-pyrimido[4,5-d]azepine]",≥ 90%
9,"O=C(C(c1ccccc1)C1CCCCC1)N1CCc2cnc(N3CCN(C4CCC4)CC3)nc2CC1 (stereo not drawn) [Compound 355, 2-(4-cyclobutylpiperazin-1-yl)-7-[cyclohexyl(phenyl)acetyl]-6,7,8,9-tetrahydro-5H-pyrimido[4,5-d]azepine]",≥ 90%
10,"O=C(Cc1cccc(OC(F)(F)F)c1)N1CCc2cnc(N3CCN(C4CCC4)CC3)nc2CC1 [Compound 279, 2-(4-cyclobutylpiperazin-1-yl)-7-{[3-(trifluoromethoxy)phenyl]acetyl}-6,7,8,9-tetrahydro-5H-pyrimido[4,5-d]azepine]",≥ 90%

# Same assay, conditions: symbol ! in Ki; test compound 4 μM, 1 μM histamine; read-out: percent inhibition of agonist-induced GTP-gammaS binding to H3
row,Compound,inhibition at 4 µM
1,"CC(C1CCCCC1)N1CCc2c(ncnc2N2CCN(C3CCC3)CC2)C1 (stereo not drawn) [Compound 126, 4-(4-cyclobutylpiperazin-1-yl)-7-(1-cyclohexylethyl)-5,6,7,8-tetrahydropyrido[3,4-d]pyrimidine]",≥ 90%
2,"CCCN1CCc2ncnc(N3CCN(C4CCC4)CC3)c2CC1 [Compound 162, 4-(4-cyclobutylpiperazin-1-yl)-7-propyl-6,7,8,9-tetrahydro-5H-pyrimido[4,5-d]azepine]",≥ 90%
3,"O=C(c1ccccn1)N1CCc2c(ncnc2N2CCN(C3CCC3)CC2)C1 [Compound 35, 4-(4-cyclobutylpiperazin-1-yl)-7-(pyridin-2-ylcarbonyl)-5,6,7,8-tetrahydropyrido[3,4-d]pyrimidine]",≥ 90%
4,"c1ccc(CN2CCc3c(ncnc3N3CCN(CCCN4CCCC4)CC3)C2)cc1 [Compound 19, 7-benzyl-4-[4-(3-pyrrolidin-1-ylpropyl)piperazin-1-yl]-5,6,7,8-tetrahydropyrido[3,4-d]pyrimidine]",≥ 90%
5,"c1ccc2c(CN3CCc4c(ncnc4N4CCN(C5CCC5)CC4)C3)ccnc2c1 [Compound 72, 4-(4-cyclobutylpiperazin-1-yl)-7-(quinolin-4-ylmethyl)-5,6,7,8-tetrahydropyrido[3,4-d]pyrimidine]",≥ 90%
6,"CCCCCN1CCc2ncnc(N3CCN(C4CCC4)CC3)c2CC1 [Compound 164, 4-(4-cyclobutylpiperazin-1-yl)-7-pentyl-6,7,8,9-tetrahydro-5H-pyrimido[4,5-d]azepine]",≥ 90%
7,"Cc1ccc(CN2CCc3nc(N4CCN(C5CCC5)CC4)ncc3C2)cc1 [Compound 615, 2-(4-cyclobutylpiperazin-1-yl)-6-(4-methylbenzyl)-5,6,7,8-tetrahydropyrido[4,3-d]pyrimidine]",≥ 90%
8,"CCCCN1CCc2c(ncnc2N2CCN(C3CCC3)CC2)C1 [Compound 83, 7-butyl-4-(4-cyclobutylpiperazin-1-yl)-5,6,7,8-tetrahydropyrido[3,4-d]pyrimidine]",≥ 90%
9,"Clc1ccc(CN2CCc3nc(N4CCN(C5CCC5)CC4)ncc3C2)c(Cl)c1 [Compound 646, 2-(4-cyclobutylpiperazin-1-yl)-6-(2,4-dichlorobenzyl)-5,6,7,8-tetrahydropyrido[4,3-d]pyrimidine]",≥ 90%
10,"COc1ccccc1C(C)N1CCc2c(ncnc2N2CCN(C3CCC3)CC2)C1 (stereo not drawn) [Compound 113, 4-(4-cyclobutylpiperazin-1-yl)-7-[1-(2-methoxyphenyl)ethyl]-5,6,7,8-tetrahydropyrido[3,4-d]pyrimidine]",≥ 90%
